# Results as given in US10517889B2, “Modulators of SMAD7 expression” (Ionis Pharmaceuticals, Inc., priority 2017, dated 2019).
# Strand notation (5' to 3'): a small letter for the sugar, then the base; units joined by * are phosphorothioate-linked, units joined directly phosphodiester-linked; [ ] holds rarer units or linkages, { } end groups; capitals alone tell only the bases. e = 2'-O-(2-methoxyethyl) (MOE); [5mC] = 5-methylcytosine; d = 2'-deoxy (DNA)
# Test system: human SMAD7 mRNA
# Test: Antisense inhibition of human SMAD7 mRNA expression in Hep3B cells by 5-10-5 MOE gapmers, single concentration, electroporation, RT-PCR (Example 1, Study 1 and 2)
# Format: cell-based
# Conditions: for % Inhibition: Study 2, electroporation with 15,000 nM antisense oligonucleotide; for % Inhibition of SMAD7 mRNA: electroporation with 15,000 nM antisense oligonucleotide (Study 2)
# How it was run: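 Readout is percent SMAD7 mRNA inhibition versus untreated cells, measured by qRT-PCR (RTS5062) and corrected for total RNA by RIBOGREEN. Oligonucleotide, 5,000 nM or 15,000 nM, was delivered by electroporation into Hep3B cells at 20,000 per well. RNA was collected about 24 h later.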
# [1] = 5-10-5 MOE gapmers targeting SEQ ID NO: 1 and 2
# [2] = electroporation, 15,000 nM antisense oligonucleotide (Study 2), 5-10-5 MOE gapmers targeting SEQ ID NO: 1 and 2
# [3] = electroporation, 5,000 nM, approximately 24 hours, relative to untreated control cells, gapmers targeting SEQ ID NO: 1 and 2
# [4] = electroporation, 15,000 nM, approximately 24 hours, relative to untreated control cells, gapmers targeting SEQ ID NO: 1 and 2
Substance,% Inhibition [1],% inhibition of SMAD7 mRNA expression [2],further results
771846 (antisense e[5mC]*eA*eT*eA*eT*dT*dT*dG*d[5mC]*dT*d[5mC]*d[5mC]*dA*dT*dA*eA*eA*e[5mC]*eA*eA) [compound 771846],5%,,
771847 (antisense e[5mC]*eA*eT*e[5mC]*eA*d[5mC]*d[5mC]*dT*dT*d[5mC]*dG*dG*dA*d[5mC]*dA*eA*eG*e[5mC]*e[5mC]*eA) [compound 771847],53%,,
771848 (antisense e[5mC]*e[5mC]*eA*e[5mC]*eA*d[5mC]*dA*dA*d[5mC]*d[5mC]*dA*dA*dA*dG*d[5mC]*eA*eG*eA*eA*eG) [compound 771848],,36%,% Inhibition of SMAD7 mRNA [1]: 47%
771851 (antisense eG*e[5mC]*eT*eT*eT*dG*dA*dA*dA*dA*d[5mC]*dA*dT*d[5mC]*d[5mC]*e[5mC]*eA*e[5mC]*eT*eT) [compound 771851],43%,,% inhibition of SMAD7 mRNA expression [3]: 25%
771852 (antisense eA*eG*eA*eT*eT*dT*dA*dA*dA*dA*dT*dT*dA*dA*dA*eA*eA*eG*e[5mC]*eA) [compound 771852],0%,,
771853 (antisense eA*eG*e[5mC]*eT*eT*dG*dG*dA*dA*dG*d[5mC]*d[5mC]*dA*dT*d[5mC]*eG*eG*eT*eT*eG) [compound 771853],,,% inhibition of SMAD7 mRNA expression [4]: 36%
771854 (antisense eT*e[5mC]*e[5mC]*e[5mC]*e[5mC]*dG*d[5mC]*d[5mC]*dT*dT*dT*dT*d[5mC]*dT*dT*e[5mC]*e[5mC]*eT*eG*eG) [compound 771854],9%,,
771855 (antisense eT*e[5mC]*e[5mC]*e[5mC]*eG*dA*d[5mC]*dT*dT*dT*dG*d[5mC]*dA*dA*dG*eA*eT*eG*eA*eA) [compound 771855],38%,,
771856 (antisense e[5mC]*eT*eG*eA*eA*dA*dG*dA*dA*dA*dG*dT*d[5mC]*d[5mC]*d[5mC]*eG*eA*e[5mC]*eT*eT) [compound 771856],,34%,% Inhibition of SMAD7 mRNA [1]: 35%
771857 (antisense e[5mC]*eG*eT*e[5mC]*eT*dT*dA*dT*dT*dG*dT*dT*dT*dT*dT*eG*eT*eT*e[5mC]*e[5mC]) [compound 771857],,29%,
771858 (antisense e[5mC]*eT*eG*e[5mC]*e[5mC]*dA*dA*d[5mC]*dG*dG*d[5mC]*dA*d[5mC]*dA*dG*eT*e[5mC]*eA*eT*eA) [compound 771858],,31%,
771859 (antisense e[5mC]*e[5mC]*eA*eG*eA*dA*dA*dA*dT*dG*d[5mC]*dA*dG*dA*d[5mC]*eA*eG*e[5mC]*eT*eA) [compound 771859],42%,,% inhibition of SMAD7 mRNA expression [3]: 43%
771860 (antisense e[5mC]*eT*eG*eG*e[5mC]*dT*d[5mC]*dA*dG*dA*dG*dG*d[5mC]*dT*dG*e[5mC]*eA*eG*eT*eG) [compound 771860],20%,,
771861 (antisense eA*eG*eA*eA*eA*dA*d[5mC]*dA*dG*d[5mC]*d[5mC]*d[5mC]*d[5mC]*d[5mC]*d[5mC]*e[5mC]*eA*eG*e[5mC]*eA) [compound 771861],,,% inhibition of SMAD7 mRNA expression [4]: 13%
771862 (antisense eT*e[5mC]*eT*eT*e[5mC]*d[5mC]*d[5mC]*d[5mC]*dA*dG*dA*dA*dA*dA*d[5mC]*eA*eG*e[5mC]*e[5mC]*e[5mC]) [compound 771862],10%,,
771863 (antisense e[5mC]*e[5mC]*eA*eG*e[5mC]*d[5mC]*d[5mC]*d[5mC]*d[5mC]*dT*d[5mC]*d[5mC]*dT*dG*dG*eG*eA*e[5mC]*eT*eA) [compound 771863],9%,,

Substance,% Inhibition [1],% inhibition of SMAD7 mRNA expression [2],further results
771864 (antisense eA*eG*eA*e[5mC]*eA*dA*dA*dG*dA*dT*d[5mC]*dA*d[5mC]*dA*dG*eA*eT*e[5mC]*eA*e[5mC]) [compound 771864],,0%,% Inhibition of SMAD7 mRNA [1]: 27%
771865 (antisense eA*eT*eA*eG*eG*dG*dA*dT*dA*dT*d[5mC]*dT*d[5mC]*dA*dT*e[5mC]*eA*eA*eT*eA) [compound 771865],,38%,
771866 (antisense eG*e[5mC]*eA*eT*eT*dT*dT*dT*d[5mC]*dT*dG*dA*dA*d[5mC]*dA*eG*eA*eG*eT*e[5mC]) [compound 771866],,34%,
771867 (antisense eA*e[5mC]*eT*eG*eG*dG*d[5mC]*dT*dT*d[5mC]*dA*dG*d[5mC]*dA*dA*eA*eG*eA*eT*eA) [compound 771867],19%,,% inhibition of SMAD7 mRNA expression [3]: 39%
771868 (antisense eG*eG*eA*eG*eG*d[5mC]*dA*dA*dA*dT*dT*d[5mC]*dA*dT*dA*eG*eA*e[5mC]*eA*eG) [compound 771868],16%,,
771870 (antisense eA*eG*eG*e[5mC]*eA*d[5mC]*dA*dA*dG*dT*d[5mC]*dA*dA*dG*dG*eA*eG*eG*e[5mC]*e[5mC]) [compound 771870],15%,,
771871 (antisense e[5mC]*eT*e[5mC]*e[5mC]*e[5mC]*dT*d[5mC]*dT*dG*d[5mC]*d[5mC]*d[5mC]*d[5mC]*dA*dG*eG*eA*eT*eT*e[5mC]) [compound 771871],15%,,
771872 (antisense eT*e[5mC]*e[5mC]*e[5mC]*e[5mC]*d[5mC]*dA*d[5mC]*d[5mC]*dG*d[5mC]*dG*d[5mC]*dA*dG*eG*eG*eA*e[5mC]*eA) [compound 771872],,0%,% Inhibition of SMAD7 mRNA [1]: 11%
771873 (antisense eA*eG*e[5mC]*eT*eG*d[5mC]*dT*dG*dT*d[5mC]*dA*d[5mC]*dA*dA*dG*eG*e[5mC]*e[5mC]*e[5mC]*eT) [compound 771873],,31%,
771874 (antisense eA*eT*eT*eA*e[5mC]*dT*dT*d[5mC]*dT*dG*dT*d[5mC]*dT*dG*d[5mC]*e[5mC]*eT*e[5mC]*e[5mC]*eG) [compound 771874],,34%,
771875 (antisense e[5mC]*e[5mC]*e[5mC]*e[5mC]*eG*dT*dG*d[5mC]*dA*d[5mC]*dT*d[5mC]*d[5mC]*d[5mC]*dA*eG*e[5mC]*e[5mC]*e[5mC]*eT) [compound 771875],51%,,% inhibition of SMAD7 mRNA expression [3]: 42%
771876 (antisense e[5mC]*eG*eA*eG*e[5mC]*dT*d[5mC]*d[5mC]*d[5mC]*dT*d[5mC]*d[5mC]*d[5mC]*dT*dG*eG*e[5mC]*e[5mC]*e[5mC]*e[5mC]) [compound 771876],0%,,
771877 (antisense eT*eG*e[5mC]*eA*eG*dG*dA*dT*d[5mC]*d[5mC]*dG*dA*dT*dG*dG*eA*eA*eA*eA*eG) [compound 771877],,,% inhibition of SMAD7 mRNA expression [4]: 24%
771878 (antisense e[5mC]*eA*eG*eT*eT*dT*d[5mC]*dT*dA*dG*dA*dG*dG*dG*dT*eA*eG*eG*eA*eA) [compound 771878],22%,,
771879 (antisense eA*eG*eG*eA*e[5mC]*d[5mC]*d[5mC]*dA*dA*dA*dG*dG*d[5mC]*dA*dG*eA*e[5mC]*e[5mC]*e[5mC]*eT) [compound 771879],23%,,
771880 (antisense eT*e[5mC]*e[5mC]*e[5mC]*eT*dG*dG*dT*dT*dT*dT*dG*d[5mC]*dA*dG*eG*eT*eG*eG*eT) [compound 771880],,29%,% Inhibition of SMAD7 mRNA [1]: 41%
